Reference: US12606795B2 (Thankcome Biological Science and Technology (SuZhou) Co., …, priority 2023, dated 2026)

Experiments:
[1] = system: Salmonella typhimurium TA97a; settings: TA97a −S9
Protocol: (§1) Bacterial strains used were Salmonella typhimurium TA97a (National Center for Type Culture Collection NTCC, 506391), S. typhimurium TA98 (NTCC, 506392), S. typhimurium TA100 (NTCC, 506395), S. typhimurium TA1535 (NTCC, 506396), and Escherichia coli WP2 uvrA (CHI Scientific, Co., Ltd., product number: 6-1705). To prepare a drug delivery formulation, distilled water was used as a carrier to prepare a suspension (100 mg/mL) for a test item. […] Therefore, bacteria in samples for the test item were removed by a mechanical means. In the process of mixing the formulation, any soluble components for the test item was dissolved in the carrier, and then, residual bacteria were removed by centrifugation (4° C.; 8000 rpm; 10 min). After centrifugation, liquid supernatant was removed and sterile filtration was performed with a 0.22 μm filter.
(§2) In the confirmatory mutation research, detection was performed at 15.81, 50, 158.1, 500, 1581, and 5000 μg/plate. The maximum concentration was recommended by current regulations and guidelines. […] The survival rate of test bacterial cells was checked through plate experiments in each test. If there is a dosage-related increase in the number of revertants, it is considered that the test item has mutagenicity, and/or a reproducible biology-related positive reaction targeting at least one dosage group occurs in at least one strain with or without metabolic activation.

S. typhimurium TA98 = settings: TA98 −S9
Protocol: as §1, §2

[2] = system: Escherichia coli WP2 uvrA; settings: Escherichia coli WP2A uvr −S9
Protocol: as §1, §2

S. typhimurium TA100 = settings: TA100 −S9
Protocol: as §1, §2

Row | Structure (SMILES) | Number of revertant mutants per plate (mean ± standard deviation) [1] | Number of revertant mutants per plate (mean ± standard deviation) (S. typhimurium TA98) | Number of revertant mutants per plate (mean ± standard deviation) [2] | Number of revertant mutants per plate (mean ± standard deviation) (S. typhimurium TA100)
1 | CN(C)c1ccc(N=NS(=O)(=O)[O-])cc1.[Na+] [Positive control 1, fenaminosulf] | 1169.4 | 1525.00 | – | –
2 | COS(C)(=O)=O [Positive control 2, methyl methylsulfonate] | – | – | 613.40 | 1347.00
